Laboratory results from US20090270394A1, “CYCLYLAMINE DERIVATIVES AS CALCIUM CHANNEL BLOCKERS” (priority 2008, published 2009).

Target: T1, Human Cav2.2 channels (Homo sapiens, UniProt Q00975)
T1 construct: expressed in transfected cells
Test: Fluorescent assay for Cav2.2 channels using potassium depolarization to initiate channel opening
Format: cell-based
Settings: for inhibition at 10 µM: read-out: Cav 2.2 Activity % Inh at 10 μM; for inhibition at 30 µM: read-out: Cav 2.2 Activity % Inh at 30 μM; for IC50: 30 mM K (block of open and inactivated channels), read-out: Cav 2.2 Activity IC50 at 30 mM K
Text: Human Cav2.2 channels were stably expressed in HEK293 cells along with alpha2-delta and beta subunits of voltage-gated calcium channels. An inwardly rectifying potassium channel (Kir2.3) was also expressed in these cells to allow more precise control of the cell membrane potential by extracellular potassium concentration. At low bath potassium concentration, the membrane potential is relatively negative, and is depolarized as the bath potassium concentration is raised. In this way, the bath potassium concentration can be used to regulate the voltage-dependent conformations of the channels. […] After the incubation period, Cav2.2 channel opening is triggered by addition of higher concentration of potassium (70 mM final concentration) to further depolarize the cell. The degree of state-dependent block can be estimated from the inhibitory potency of compounds after incubation in different potassium concentrations.
Calcium influx through Cav2.2 channels is determined using a calcium sensitive fluorescent dye in combination with a fluorescent plate reader. Fluorescent changes were measured with either a VIPR (Aurora Instruments) or FLIPR (Molecular Devices) plate reader.
• 1. Seed cells in Poly-D-Lysine Coated 96 or 384-well plate and keep in a 37° C.-10% CO2 incubator overnight • 2. […] Incubate in the dark at 25° C. for 60-70 min • 5. Remove dye, wash cells with 0.1 mL (96-well plate) or 0.06 mL (384-well plate) of 4, 12, 25, or 30 mM Potassium Pre-polarization Buffer (PPB) • 6. […] Incubate in the dark at 25° C. for 30 min • 8. Read cell plate on VIPR instrument, Excitation=480 nm, Emission=535 nm • 9. With VIPR continuously reading, add 0.1 mL (96-well plate) or 0.03 mL (384-well plate) of Depolarization Buffer (DB), which is 2× the final assay concentration, to the cell plate.

T1 sequence (Q00975 whole entry): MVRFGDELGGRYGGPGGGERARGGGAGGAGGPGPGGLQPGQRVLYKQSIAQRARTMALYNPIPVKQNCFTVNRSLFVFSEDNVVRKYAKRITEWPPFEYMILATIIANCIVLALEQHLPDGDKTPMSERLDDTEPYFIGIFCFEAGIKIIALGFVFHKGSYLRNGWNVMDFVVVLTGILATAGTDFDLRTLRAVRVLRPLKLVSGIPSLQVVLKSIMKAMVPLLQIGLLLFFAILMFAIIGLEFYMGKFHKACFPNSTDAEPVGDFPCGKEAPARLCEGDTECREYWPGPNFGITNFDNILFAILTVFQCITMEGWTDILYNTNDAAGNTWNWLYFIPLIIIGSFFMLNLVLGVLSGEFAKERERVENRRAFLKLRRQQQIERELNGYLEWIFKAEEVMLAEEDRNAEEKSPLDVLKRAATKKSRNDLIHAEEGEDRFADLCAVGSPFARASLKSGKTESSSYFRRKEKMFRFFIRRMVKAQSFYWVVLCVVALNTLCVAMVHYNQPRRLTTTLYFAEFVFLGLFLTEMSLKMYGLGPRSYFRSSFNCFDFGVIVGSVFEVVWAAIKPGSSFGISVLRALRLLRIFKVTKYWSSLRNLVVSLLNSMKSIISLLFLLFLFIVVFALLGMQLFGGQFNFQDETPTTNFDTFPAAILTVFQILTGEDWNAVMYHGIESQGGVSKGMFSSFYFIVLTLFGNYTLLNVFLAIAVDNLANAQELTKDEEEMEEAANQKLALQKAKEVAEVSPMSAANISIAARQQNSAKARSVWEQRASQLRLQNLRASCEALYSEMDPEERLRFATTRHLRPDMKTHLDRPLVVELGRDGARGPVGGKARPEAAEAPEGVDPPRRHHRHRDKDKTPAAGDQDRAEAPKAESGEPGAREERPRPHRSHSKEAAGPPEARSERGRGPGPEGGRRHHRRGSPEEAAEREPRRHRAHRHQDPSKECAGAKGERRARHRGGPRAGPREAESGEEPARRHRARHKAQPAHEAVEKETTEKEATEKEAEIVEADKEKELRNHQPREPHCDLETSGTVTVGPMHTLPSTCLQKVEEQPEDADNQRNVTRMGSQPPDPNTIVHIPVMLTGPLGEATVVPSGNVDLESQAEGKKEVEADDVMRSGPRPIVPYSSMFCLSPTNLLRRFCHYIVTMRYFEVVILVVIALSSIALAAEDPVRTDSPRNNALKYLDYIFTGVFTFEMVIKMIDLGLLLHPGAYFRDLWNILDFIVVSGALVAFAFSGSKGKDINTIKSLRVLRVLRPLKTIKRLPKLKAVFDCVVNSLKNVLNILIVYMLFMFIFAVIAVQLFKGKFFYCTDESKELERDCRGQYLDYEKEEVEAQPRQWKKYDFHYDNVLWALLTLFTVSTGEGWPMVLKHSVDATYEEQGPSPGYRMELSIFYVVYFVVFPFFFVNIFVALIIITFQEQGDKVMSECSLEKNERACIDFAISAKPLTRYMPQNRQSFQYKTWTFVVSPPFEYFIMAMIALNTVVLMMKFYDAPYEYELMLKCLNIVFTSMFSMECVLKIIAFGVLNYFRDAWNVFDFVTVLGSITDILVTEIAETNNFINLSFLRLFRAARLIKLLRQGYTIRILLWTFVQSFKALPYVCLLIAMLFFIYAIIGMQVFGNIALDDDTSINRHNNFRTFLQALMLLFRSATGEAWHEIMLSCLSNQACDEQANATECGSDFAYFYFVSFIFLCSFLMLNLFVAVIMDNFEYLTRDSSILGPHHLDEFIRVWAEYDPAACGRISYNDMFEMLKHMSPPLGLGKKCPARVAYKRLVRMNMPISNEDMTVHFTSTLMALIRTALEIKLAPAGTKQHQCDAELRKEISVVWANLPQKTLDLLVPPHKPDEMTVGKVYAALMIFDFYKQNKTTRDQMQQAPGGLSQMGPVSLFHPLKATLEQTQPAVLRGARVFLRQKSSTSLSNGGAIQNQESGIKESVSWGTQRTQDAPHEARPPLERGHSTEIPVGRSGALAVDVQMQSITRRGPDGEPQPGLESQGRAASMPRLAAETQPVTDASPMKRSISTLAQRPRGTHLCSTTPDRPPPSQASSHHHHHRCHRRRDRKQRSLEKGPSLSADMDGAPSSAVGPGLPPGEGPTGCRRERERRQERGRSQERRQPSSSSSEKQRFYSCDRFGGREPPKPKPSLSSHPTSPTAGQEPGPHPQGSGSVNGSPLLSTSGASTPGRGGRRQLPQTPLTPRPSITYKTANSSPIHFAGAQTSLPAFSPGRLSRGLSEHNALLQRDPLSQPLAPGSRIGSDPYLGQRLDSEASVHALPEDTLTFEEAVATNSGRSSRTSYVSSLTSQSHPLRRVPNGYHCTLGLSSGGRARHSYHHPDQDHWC
T1 sequence (P54289 25-1103 partner): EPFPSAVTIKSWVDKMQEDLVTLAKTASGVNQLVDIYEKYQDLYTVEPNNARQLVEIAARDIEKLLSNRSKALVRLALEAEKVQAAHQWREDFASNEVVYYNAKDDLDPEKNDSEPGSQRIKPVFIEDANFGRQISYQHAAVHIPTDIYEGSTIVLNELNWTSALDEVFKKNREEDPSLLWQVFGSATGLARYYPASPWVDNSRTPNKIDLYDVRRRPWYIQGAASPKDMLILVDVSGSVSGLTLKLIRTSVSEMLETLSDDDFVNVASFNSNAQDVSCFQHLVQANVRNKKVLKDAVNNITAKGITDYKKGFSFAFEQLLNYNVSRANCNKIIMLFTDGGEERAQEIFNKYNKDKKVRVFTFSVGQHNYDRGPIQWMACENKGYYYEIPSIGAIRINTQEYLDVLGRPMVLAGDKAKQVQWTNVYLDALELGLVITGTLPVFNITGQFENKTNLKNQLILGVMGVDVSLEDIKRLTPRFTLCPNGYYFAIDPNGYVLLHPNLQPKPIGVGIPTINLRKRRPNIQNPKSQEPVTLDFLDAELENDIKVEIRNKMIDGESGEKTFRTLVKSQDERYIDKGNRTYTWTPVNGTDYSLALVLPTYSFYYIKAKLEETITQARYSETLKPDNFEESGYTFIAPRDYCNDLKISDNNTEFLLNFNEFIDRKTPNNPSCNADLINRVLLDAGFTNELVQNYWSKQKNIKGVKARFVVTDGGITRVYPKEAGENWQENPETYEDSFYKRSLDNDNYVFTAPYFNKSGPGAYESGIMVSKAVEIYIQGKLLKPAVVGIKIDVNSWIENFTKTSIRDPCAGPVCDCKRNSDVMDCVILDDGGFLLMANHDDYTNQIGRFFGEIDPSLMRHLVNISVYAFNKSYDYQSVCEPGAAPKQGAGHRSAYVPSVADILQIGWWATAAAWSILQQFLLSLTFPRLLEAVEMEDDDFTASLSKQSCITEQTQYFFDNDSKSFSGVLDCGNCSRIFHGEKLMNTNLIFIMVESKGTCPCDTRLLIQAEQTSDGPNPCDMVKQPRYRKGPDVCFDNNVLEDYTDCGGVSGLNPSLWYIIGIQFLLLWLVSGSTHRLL
T1 sequence (P54284 whole entry partner): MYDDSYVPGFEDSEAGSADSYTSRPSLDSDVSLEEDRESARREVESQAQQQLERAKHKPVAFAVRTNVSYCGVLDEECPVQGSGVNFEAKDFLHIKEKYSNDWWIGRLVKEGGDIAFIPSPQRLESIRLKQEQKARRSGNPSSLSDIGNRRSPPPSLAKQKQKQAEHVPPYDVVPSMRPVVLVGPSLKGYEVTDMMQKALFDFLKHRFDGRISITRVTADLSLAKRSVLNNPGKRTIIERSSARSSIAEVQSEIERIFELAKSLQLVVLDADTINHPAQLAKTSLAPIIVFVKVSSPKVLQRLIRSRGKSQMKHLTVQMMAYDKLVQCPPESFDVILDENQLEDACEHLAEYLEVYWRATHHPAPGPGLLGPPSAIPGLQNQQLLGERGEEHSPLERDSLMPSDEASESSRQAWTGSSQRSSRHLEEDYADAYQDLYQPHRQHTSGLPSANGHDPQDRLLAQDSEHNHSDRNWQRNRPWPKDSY

Row | Compound | inhibition at 10 µM (10 μM compound) | inhibition at 30 µM (30 μM compound) | IC50 | Cav 2.2 Activity % Inh at 10 μM (10 μM compound) | Cav 2.2 Activity % Inh at 30 μM (30 μM compound)
1 | Cc1cc(CNC(=O)C2(NC(=O)c3cc(C(C)(C)C)c(O)c(C(C)(C)C)c3)CCCCC2)no1 [Compound 12, 3,5-di-tert-butyl-4-hydroxy-N-(1-((5-methylisoxazol-3-yl)methylcarbamoyl)cyclohexyl)benzamide] | 98.6% | 101% | 55 nM | – | –
2 | CC(C)(C)NC(=O)C(C)(C)c1ccc(C(=O)NC2(C(=O)NCc3ccccc3)CCCCC2)cc1 [Compound 125, N-(1-(benzylcarbamoyl)cyclohexyl)-4-(1-(tert-butylamino)-2-methyl-1-oxopropan-2-yl)benzamide] | 89.6% | 85.8% | 739 nM | – | –
3 | COc1c(C(C)(C)C)cc(CNC2(C(=O)NCc3ccccc3)CCCCC2)cc1C(C)(C)C [Compound 72, N-benzyl-1-(3,5-di-tert-butyl-4-methoxybenzylamino)cyclohexanecarboxamide] | 97.8% | 97.4% | 145 nM | – | –
4 | CC(C)(C)c1cc(C(=O)NC2(C(=O)NCc3ccc(F)cc3F)CCCCC2)cc(C(C)(C)C)c1 [Compound 50, 3,5-di-tert-butyl-N-(1-(2,4-difluorobenzylcarbamoyl)cyclohexyl)benzamide] | 99.6% | 102% | 80.3 nM | – | –
5 | CC(C)(C)c1cc(C(=O)NC2(C(=O)NCc3ccncc3)CCCCC2)cc(C(C)(C)C)n1 [Compound 100, 2,6-di-tert-butyl-N-(1-(pyridin-4-ylmethylcarbamoyl)cyclohexyl)isonicotinamide] | – | – | 154 nM | – | –
6 | Cc1cc(CNC(=O)C2(NC(=O)c3cc(C(C)(C)C)c(O)c(C(C)(C)C)c3)CC2)no1 [Compound 116, 3,5-di-tert-butyl-4-hydroxy-N-(1-((5-methylisoxazol-3-yl)methylcarbamoyl)cyclopropyl)benzamide] | 92.5% | 98% | 943 nM | – | –
7 | CC(C)(C)c1cc(C(=O)NC2(C(=O)Nc3nc4ccccc4[nH]3)CC2)cc(C(C)(C)C)n1 [Compound 19, N-(1-(1H-benzo[d]imidazol-2-ylcarbamoyl)cyclopropyl)-2,6-di-tert-butylisonicotinamide] | 60.3% | – | – | – | –
8 | CC(C)(C)c1cc(C(=O)NC2(C(=O)NCc3ccc(F)cc3)CCCCC2)cc(C(C)(C)C)c1 [Compound 49, 3,5-di-tert-butyl-N-(1-(4-fluorobenzylcarbamoyl)cyclohexyl)benzamide] | 103% | 91.6% | 44.2 nM | – | –
9 | CC(C)(C)c1cc(C(=O)NC2(C(=O)NCCCN3CCOCC3)CCCCC2)cc(C(C)(C)C)n1 [Compound 99, 2,6-di-tert-butyl-N-(1-(3-morpholinopropylcarbamoyl)cyclohexyl)isonicotinamide] | – | – | 700 nM | – | –
10 | CC(C)(C)c1cc(C(=O)NC2(C(=O)NCc3cccc(C(F)(F)F)c3)CCCC2)cc(C(C)(C)C)c1 [Compound 39, 3,5-di-tert-butyl-N-(1-(3-(trifluoromethyl)benzylcarbamoyl)cyclopentyl)benzamide] | 79.6% | 77.9% | 513 nM | – | –
11 | COc1c(C(C)(C)C)cc(C(=O)NC2(C(=O)NCc3cc(C)on3)CCCCC2)cc1C(C)(C)C [Compound 86, 3,5-di-tert-butyl-4-methoxy-N-(1-((5-methylisoxazol-3-yl)methylcarbamoyl)cyclohexyl)benzamide] | 99.1% | 104% | 9.57 nM | – | –
12 | Cc1cnc(CNC(=O)C2(NC(=O)c3cc(C(C)(C)C)nc(C(C)(C)C)c3)CCCC2)cn1 [Compound 91, 2,6-di-tert-butyl-N-(1-((5-methylpyrazin-2-yl)methylcarbamoyl)cyclopentyl)isonicotinamide] | 95.3% | 96.1% | 148 nM | – | –
13 | CC(C)(C)c1cc(C(=O)NC2(C(=O)NCc3nccs3)CC2)cc(C(C)(C)C)n1 [Compound 10, 2,6-di-tert-butyl-N-(1-(thiazol-2-ylmethylcarbamoyl)cyclopropyl)isonicotinamide] | 95.7% | 101% | 184 nM | – | –
14 | COc1ccc(CNC(=O)C2(NC(=O)c3cc(C(C)(C)C)nc(C(C)(C)C)c3)CCCC2)cc1 [Compound 89, 2,6-di-tert-butyl-N-(1-(4-methoxybenzylcarbamoyl)cyclopentyl)isonicotinamide] | 90.8% | 100% | 54.6 nM | – | –
15 | CC(C)(C)c1cc(C(=O)NC2(C(=O)NCc3nccs3)CCCCC2)cc(C(C)(C)C)c1O [Compound 13, 3,5-di-tert-butyl-4-hydroxy-N-(1-(thiazol-2-ylmethylcarbamoyl)cyclohexyl)benzamide] | 96.9% | 99.8% | 34.1 nM | – | –
16 | CN(C)Cc1ccc(CNC(=O)C2(NC(=O)c3cc(C(C)(C)C)nc(C(C)(C)C)c3)CCOCC2)cc1 [Compound 23, 2,6-di-tert-butyl-N-(4-(4-((dimethylamino)methyl)benzylcarbamoyl)tetrahydro-2H-pyran-4-yl)isonicotinamide] | 87.4% | – | – | – | –
17 | 1-(2,6-di-tert-butylisonicotinimidamido)-N-((5-methylisoxazol-3-yl)methyl)cyclopentanecarboxamide [Compound 90] | – | – | 77.2 nM | 90.95% | 98.53%
18 | COc1c(C(C)(C)C)cc(C(=O)NC2(C(=O)NCCCN3CCOCC3)CCCCC2)cc1C(C)(C)C [Compound 105, 3,5-di-tert-butyl-4-methoxy-N-(1-(3-morpholinopropylcarbamoyl)cyclohexyl)benzamide] | – | – | 704 nM | – | –
19 | CC(C)(C)c1cc(C(=O)NC2(C(=O)NCc3nccs3)CC2)cc(C(C)(C)C)c1O [Compound 1, 3,5-di-tert-butyl-4-hydroxy-N-(1-(thiazol-2-ylmethylcarbamoyl)cyclopropyl)benzamide] | 95.2% | 104% | 1210 nM | – | –
20 | COc1c(C(C)(C)C)cc(C(=O)NC2(C(=O)N3CCCC3)CCCCC2)cc1C(C)(C)C [Compound 30, 3,5-di-tert-butyl-4-methoxy-N-(1-(pyrrolidine-1-carbonyl)cyclohexyl)benzamide] | 91.7% | 93.4% | 25.2 nM | – | –
21 | Cc1cc(CNC(=O)C2(NC(=O)c3cc(C(C)(C)C)nc(C(C)(C)C)c3)CC2)no1 [Compound 9, 2,6-di-tert-butyl-N-(1-((5-methylisoxazol-3-yl)methylcarbamoyl)cyclopropyl)isonicotinamide] | 45.7% | 53.4% | – | – | –
22 | CC(C)(C)c1cc(C(=O)NC2(C(=O)N3CCOCC3)CCCCC2)cc(C(C)(C)C)n1 [Compound 98, 2,6-di-tert-butyl-N-(1-(morpholine-4-carbonyl)cyclohexyl)isonicotinamide] | – | – | 248 nM | – | –
23 | CC(C)(C)c1cc(NC(=O)C2(NCc3ccccc3)CCCCC2)cc(C(C)(C)C)c1 [Compound 43, 1-(benzylamino)-N-(3,5-di-tert-butylphenyl)cyclohexanecarboxamide] | 76.2% | 82.5% | – | – | –
24 | CC(C)(C)c1cc(C(=O)NC2(C(=O)NCc3ccc(S(C)(=O)=O)cc3)CCOCC2)cc(C(C)(C)C)c1O [Compound 14, 4-(3,5-di-tert-butyl-4-hydroxybenzamido)-N-(4-(methylsulfonyl)benzyl)tetrahydro-2H-pyran-4-carboxamide] | 80.7% | 81.9% | – | – | –
25 | COc1c(C(C)(C)C)cc(C(=O)NC2(C(=O)NCc3ccccc3)CCCCC2)cc1C(C)(C)C [Compound 32, N-(1-(benzylcarbamoyl)cyclohexyl)-3,5-di-tert-butyl-4-methoxybenzamide] | 88.8% | 98% | 5.6 nM | – | –
26 | COc1ccc(CNC(=O)C2(NC(=O)c3cc(C(C)(C)C#N)cc(C(C)(C)C#N)c3)CCOCC2)cc1 [Compound 115, 4-(3,5-bis(2-cyanopropan-2-yl)benzamido)-N-(4-methoxybenzyl)tetrahydro-2H-pyran-4-carboxamide] | 53.5% | 73.4% | – | – | –
27 | CC(C)(C)c1cc(CNC2(C(=O)NCc3ccccc3)CCCCC2)cc(C(C)(C)C)c1 [Compound 57, N-benzyl-1-(3,5-di-tert-butylbenzylamino)cyclohexanecarboxamide] | 99.8% | 101% | 868 nM | – | –
28 | CC(C)(C)c1cc(C(=O)NC2(C(=O)NCc3nccs3)CCCCC2)cc(C(C)(C)C)n1 [Compound 80, 2,6-di-tert-butyl-N-(1-(thiazol-2-ylmethylcarbamoyl)cyclohexyl)isonicotinamide] | 98.4% | 104% | 106 nM | – | –
